The numbers were not newly measured in patent US20140287088A1, “Calcium Citrate-Malate as source of calcium to prevent bone diseases and increase bone strength in young animals and birds, especially young poultry, dogs, cats, swine, calves, and horses; and laying hens” (priority 2013, published 2014), which cites them from elsewhere.

The subject of data set [1] is rats. As to conditions: by 12 wk.
For data set [2] the following is noted: humans; CCM-fortified food vs food fortified with calcium carbonate.

For calcium citrate-malate [CC-M], in data set [1], the “more trabecular bone than rats fed calcium carbonate” value is listed as 44%. In addition, in data set [2], the “calcium absorption and retention” value is “significantly greater”.
